Measurements published in doi:10.1101/2025.02.01.636040v1 (bioRxiv, 2025).

Assays:
[1] = target: T1, CHIKVP (Chikungunya virus, UniProt Q8JUX6); details: 500 μM peptide, 5 μM CHIKVP, 1 hour, LC-MS extracted ion chromatograms
[2] = target: T1, CHIKVP; details: 500 µM of each peptide mixed, 5 µM CHIKVP, 10 minutes, LC-MS/UV peak area
[3] = target: T1, CHIKVP; details: 300 µM CHIKVP, 1.5 mM peptide, 10 min, 298 K, 75 mM deuterated Tris pH 7.5

T1 sequence (Q8JUX6 1004-1327 limits assumed): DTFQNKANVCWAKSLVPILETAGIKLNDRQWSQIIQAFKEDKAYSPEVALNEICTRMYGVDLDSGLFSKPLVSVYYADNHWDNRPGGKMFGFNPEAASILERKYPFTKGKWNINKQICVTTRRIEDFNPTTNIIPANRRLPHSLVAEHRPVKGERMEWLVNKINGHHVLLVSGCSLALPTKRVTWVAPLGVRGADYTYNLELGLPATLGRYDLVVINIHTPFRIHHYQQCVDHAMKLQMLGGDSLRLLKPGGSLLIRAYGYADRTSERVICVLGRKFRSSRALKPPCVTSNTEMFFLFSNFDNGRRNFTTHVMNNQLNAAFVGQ

Substance	cleavage by CHIKVP by LC-MS [1]	decrease in peak area [2] [%]	binding to CHIKVP from 1H-NMR line broadening [3]
DELRLDRAGG/YIFSS	effectively cleaved	54.1	more potent binder of CHIKVP
VEQLEDRAGA/GIIGGSRR	effectively cleaved	52.7	
